In paper PMC9095416 (Medicinal Chemistry Research, 2022):

What was measured:
SARS-CoV-2 M^pro [1] = target: T1, SARS-CoV-2 M^pro (Severe acute respiratory syndrome coronavirus 2, UniProt P0DTD1); test: FRET-based enzymatic assay, SARS-CoV-2 M^pro; format: biochemical; conditions: FRET assay M^pro IC50, 4 mM DTT
SARS-CoV-2 PL^pro = SARS-CoV-2 PL^pro (Severe acute respiratory syndrome coronavirus 2, UniProt P0DTD1); test: FRET-based enzymatic assay, SARS-CoV-2 PL^pro; format: biochemical
SARS-CoV-2 M^pro [2] = target: T1, SARS-CoV-2 M^pro; test: cell-based

Compound `Oc1cc(O)cc(Oc2c(O)cc(O)c3c2Oc2c(O)cc(Oc4c(O)cc(Oc5c(O)cc(O)c6c5Oc5c(O)cc(O)cc5O6)cc4O)cc2O3)c1` [Dieckol, dieckol] has an IC50 (SARS-CoV-2 M^pro [1]) of over 20 µM, an IC50 (SARS-CoV-2 PL^pro) of over 20 µM and an IC50 (SARS-CoV-2 M^pro [2]) of over 60 µM.
